Molecular target: T1, Human 5-lipoxygenase (Homo sapiens, UniProt P09917)
T1 construct: purchased Cayman 60402; host or cells: insect cells
T1 sequence (P09917 1-674): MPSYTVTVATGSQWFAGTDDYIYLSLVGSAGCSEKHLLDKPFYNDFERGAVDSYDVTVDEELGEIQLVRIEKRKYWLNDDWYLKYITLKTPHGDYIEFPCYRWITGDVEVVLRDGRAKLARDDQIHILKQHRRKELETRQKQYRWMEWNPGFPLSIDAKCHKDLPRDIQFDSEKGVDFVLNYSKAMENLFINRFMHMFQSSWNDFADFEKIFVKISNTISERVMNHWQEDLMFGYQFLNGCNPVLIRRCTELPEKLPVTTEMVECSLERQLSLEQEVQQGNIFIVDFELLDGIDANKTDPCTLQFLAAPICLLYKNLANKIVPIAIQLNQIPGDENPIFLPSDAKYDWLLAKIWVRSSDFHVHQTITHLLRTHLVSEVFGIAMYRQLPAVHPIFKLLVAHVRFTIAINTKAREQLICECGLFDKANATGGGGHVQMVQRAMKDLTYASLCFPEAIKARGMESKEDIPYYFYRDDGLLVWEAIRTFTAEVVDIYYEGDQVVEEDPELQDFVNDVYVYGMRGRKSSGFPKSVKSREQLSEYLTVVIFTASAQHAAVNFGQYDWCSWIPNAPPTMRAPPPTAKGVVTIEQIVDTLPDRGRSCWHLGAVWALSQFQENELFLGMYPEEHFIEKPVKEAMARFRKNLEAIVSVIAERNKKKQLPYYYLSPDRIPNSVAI
Assay: Activity of compounds against 5-LO enzyme (LTB4 measurement and/or fluorescence method)
Assay type: biochemical
Settings: for inhibition at 10 µM: 5-LO, single concentration of 10 uM in duplicate
Procedure, shortened: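 Two read-outs: LTB4 measured by EIA and/or LC/MS/MS with LTB4-d4 standard after 15 min RT compound preincubation with insect-cell 5-LO and a 5 min 37 °C reaction on 3 uM arachidonic acid (0.1 mM ATP, pH 7.4). The room-temperature fluorescence format used 20 uM H2DCFDA, 100 uM ATP, 3 uM arachidonic acid, 5 min; IC50 from 6/11-point curves.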

SMILES	inhibition at 10 µM [%]	IC50 (6 or 11 point dose response in duplicate) [µM]
CCc1nc2c(-c3ccncc3)cccn2c1C(=O)NCc1ccc(N2CCOCC2)cc1 [compound 284, 2-Ethyl-N-(4-morpholinobenzyl)-8-(pyridin-4-yl)imidazo[1,2-a]pyridine-3-carboxamide]	< 40	–
CCc1nc2ccc(Cl)cn2c1C(=O)NCc1ccc(N2CCC(COC3CCCC3)CC2)cc1 [compound 285, 6-Chloro-N-(4-(4-(cyclopentyloxymethyl)piperidin-1-yl)benzyl)-2-ethylimidazo[1,2-a]pyridine-3-carboxamide]	< 40	–
CCc1nc2cc(Cl)ccn2c1C(=O)NCc1ccc(N2CCC(COC3CCCC3)CC2)cc1 [compound 286, 7-Chloro-N-(4-(4-(cyclopentyloxymethyl)piperidin-1-yl)benzyl)-2-ethylimidazo[1,2-a]pyridine-3-carboxamide]	40 to 69	–
CCc1nc2cc(Cl)ccn2c1C(=O)NCc1ccc(-c2ccc(C=O)cc2)cc1 [compound 287, 7-Chloro-2-ethyl-N-((4′-formylbiphenyl-4-yl)methyl)imidazo[1,2-a]pyridine-3-carboxamide]	40 to 69	–
CCc1nc2ccc(Cl)cn2c1C(=O)NCc1ccc(N2CCC(C(=O)N(C)C)CC2)cc1 [compound 293, 6-Chloro-N-(4-(4-(dimethylcarbamoyl)piperidin-1-yl)benzyl)-2-ethylimidazo[1,2-a]pyridine-3-carboxamide]	< 40	–
CCc1nc2cc(Cl)ccn2c1C(=O)NCc1ccc(N2CCC(C(=O)N(C)C)CC2)cc1 [compound 294, 7-Chloro-N-(4-(4-(dimethylcarbamoyl)piperidin-1-yl)benzyl)-2-ethylimidazo[1,2-a]pyridine-3-carboxamide]	< 40	–
CCc1nc2cc(Cl)ccn2c1C(=O)NCc1ccc(N2CCC(COC(F)F)CC2)cc1 [compound 295, 7-Chloro-N-(4-(4-((difluoromethoxy)methyl)piperidin-1-yl)benzyl)-2-ethylimidazo[1,2-a]pyridine-3-carboxamide]	> 69	> 20
CCc1nc2ccc(Cl)cn2c1C(=O)NCc1ccc(N2CCC(c3ccc(Cl)cc3)CC2)cc1 [compound 296, 6-Chloro-N-(4-(4-(4-chlorophenyl)piperidin-1-yl)benzyl)-2-ethylimidazo[1,2-a]pyridine-3-carboxamide]	> 69	–
CCc1nc2ccc(Cl)cn2c1C(=O)NCc1ccc(N2CCC(OCc3ccc(F)cc3)CC2)cc1 [compound 300, 6-Chloro-2-ethyl-N-(4-(4-(4-fluorobenzyloxy)piperidin-1-yl)benzyl)imidazo[1,2-a]pyridine-3-carboxamide]	< 40	–

Continued, values first:

inhibition at 10 µM [%]	IC50 (6 or 11 point dose response in duplicate) [µM]	SMILES
40 to 69	–	CCc1nc2cc(Cl)ccn2c1C(=O)NCc1ccc(N2CCC(OCc3ccc(F)cc3)CC2)cc1 [compound 301, 7-Chloro-2-ethyl-N-(4-(4-(4-fluorobenzyloxy)piperidin-1-yl)benzyl)imidazo[1,2-a]pyridine-3-carboxamide]
< 40	–	CCc1nc2cc(Cl)ccn2c1C(=O)NCc1ccc(N2CCOCC2)c(Cl)c1 [compound 303, 7-Chloro-N-(3-chloro-4-morpholinobenzyl)-2-ethylimidazo[1,2-a]pyridine-3-carboxamide]
< 40	–	CCc1nc2ccc(Cl)cn2c1C(=O)NCc1ccc(N2CCC(C(=O)O)CC2)cc1 [compound 307, 1-(4-((6-Chloro-2-ethylimidazo[1,2-a]pyridine-3-carboxamido)methyl)phenyl)piperidine-4-carboxylic acid]
40 to 69	–	CCc1nc2ccc(Cl)cn2c1C(=O)NCc1ccc(N2CCC(Oc3ccc(F)cc3)CC2)cc1 [compound 308, 6-Chloro-2-ethyl-N-(4-(4-(4-fluorophenoxy)piperidin-1-yl)benzyl)imidazo[1,2-a]pyridine-3-carboxamide]
< 40	–	CCc1nc2ccc(C)cn2c1C(=O)NCc1ccc(N2CCOCC2)cc1 [compound 315, 2-ethyl-6-methyl-N-(4-morpholinobenzyl)imidazo[1,2-a]pyridine-3-carboxamide]
